What is called IC50 is the midpoint of a concentration-inhibition curve. For orientation: Ki means the equilibrium dissociation constant of an inhibitor or competing ligand from its target.

This note sets out measurements from ChEMBL document CHEMBL1909046, “DrugMatrix in vitro pharmacology data”.

Assay [1] in a line: DRUGMATRIX: Potassium Channel [KATP] radioligand binding (ligand: [3H] Glyburide). It counts as cell membranes, Membrane. The settings on record: hit-t15, Not Active = under 50% inhibition at 10 µM.
A further assay concerns the target T1, Adenosine receptor A1 (Homo sapiens, UniProt P30542).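 Also: radioligand binding assay at the adenosine A1 receptor, with DPCPX serving as the labelled ligand; in other assays of this panel Not Active means under 50% inhibition at 10 µM.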
T1 sequence (P30542 whole entry): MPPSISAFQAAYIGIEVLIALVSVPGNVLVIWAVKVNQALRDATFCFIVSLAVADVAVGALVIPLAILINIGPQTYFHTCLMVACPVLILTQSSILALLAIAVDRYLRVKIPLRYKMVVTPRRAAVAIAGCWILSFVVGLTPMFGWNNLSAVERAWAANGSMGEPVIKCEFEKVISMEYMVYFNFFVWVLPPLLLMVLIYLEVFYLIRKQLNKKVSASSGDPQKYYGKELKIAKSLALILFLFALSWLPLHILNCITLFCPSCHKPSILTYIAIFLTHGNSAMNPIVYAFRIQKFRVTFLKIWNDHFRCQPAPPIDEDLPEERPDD
It counts as cell membranes, Membrane. To be noted: cho.

Assay [2] deals with T2, Alpha-1A adrenergic receptor (Rattus norvegicus, UniProt P43140).
T2 sequence (P43140 whole entry): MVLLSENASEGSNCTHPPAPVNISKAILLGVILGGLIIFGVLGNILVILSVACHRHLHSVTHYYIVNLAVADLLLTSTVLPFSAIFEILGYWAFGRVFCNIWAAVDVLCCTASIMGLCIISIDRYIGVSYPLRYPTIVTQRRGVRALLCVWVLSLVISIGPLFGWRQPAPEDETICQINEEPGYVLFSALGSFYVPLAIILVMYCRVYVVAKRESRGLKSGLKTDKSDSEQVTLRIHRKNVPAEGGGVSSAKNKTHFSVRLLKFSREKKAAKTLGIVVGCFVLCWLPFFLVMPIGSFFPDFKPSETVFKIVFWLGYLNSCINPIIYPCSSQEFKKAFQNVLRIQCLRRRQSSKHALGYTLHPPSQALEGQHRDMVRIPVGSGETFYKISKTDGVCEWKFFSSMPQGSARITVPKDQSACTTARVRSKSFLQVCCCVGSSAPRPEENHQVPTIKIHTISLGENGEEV
The assay can be described thus: DRUGMATRIX: Alpha-1A adrenergic receptor radioligand binding (ligand: prazosin). It counts as cell membranes, Wistar, Submaxillary gland, Membrane. To be noted: Not Active = under 50% inhibition at 10 µM.

A short description of assay [3]: DRUGMATRIX: Calcium Channel Type L, Benzothiazepine radioligand binding (ligand: [3H] Diltiazem). To be noted: Not Active = under 50% inhibition at 10 µM. It counts as cell membranes, Rattus norvegicus, Wistar, Brain, Membrane.
The target in assay [4] is Matrix metalloproteinase-9 (Homo sapiens, UniProt P14780). The assay can be described thus: biochemical. It counts as cell-based.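 Also: inhibition of isolated MMP-9 enzyme activity toward a synthetic peptide substrate, from the DrugMatrix protease screening panel; in other assays of this panel Not Active means under 50% inhibition at 10 µM.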
A short description of assay [5]: DRUGMATRIX: Glutamate, AMPA radioligand binding (ligand: [3H] AMPA). It counts as cell membranes, Rattus norvegicus, Wistar, Cerebral cortex, Membrane. To be noted: Not Active = under 50% inhibition at 10 µM.
Assay [6] concerns the target T3, Amine oxidase [flavin-containing] A (Homo sapiens, UniProt P21397).
T3 sequence (P21397 whole entry): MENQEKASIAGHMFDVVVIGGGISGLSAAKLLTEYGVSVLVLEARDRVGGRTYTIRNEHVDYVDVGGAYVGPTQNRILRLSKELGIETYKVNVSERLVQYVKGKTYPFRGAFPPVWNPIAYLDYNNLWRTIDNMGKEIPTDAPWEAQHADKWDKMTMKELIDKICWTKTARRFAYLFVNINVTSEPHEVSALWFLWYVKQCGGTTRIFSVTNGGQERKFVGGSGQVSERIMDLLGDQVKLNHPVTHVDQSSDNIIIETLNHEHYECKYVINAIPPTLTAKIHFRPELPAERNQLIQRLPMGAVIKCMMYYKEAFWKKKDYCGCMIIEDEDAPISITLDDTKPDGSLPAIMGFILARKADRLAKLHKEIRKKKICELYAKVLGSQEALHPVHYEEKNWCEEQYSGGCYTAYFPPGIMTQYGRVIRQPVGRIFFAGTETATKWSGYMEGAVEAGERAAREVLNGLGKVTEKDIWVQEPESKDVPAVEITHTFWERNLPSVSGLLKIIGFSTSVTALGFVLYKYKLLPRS
Put plainly: DRUGMATRIX: Monoamine Oxidase MAO-A enzyme inhibition (substrate: Kynuramine). The arrangement: species or system BTI-TN-5B1-4. To be noted: Not Active = under 50% inhibition at 10 µM.

Matrix metalloproteinase-9, sequence (P14780 whole entry): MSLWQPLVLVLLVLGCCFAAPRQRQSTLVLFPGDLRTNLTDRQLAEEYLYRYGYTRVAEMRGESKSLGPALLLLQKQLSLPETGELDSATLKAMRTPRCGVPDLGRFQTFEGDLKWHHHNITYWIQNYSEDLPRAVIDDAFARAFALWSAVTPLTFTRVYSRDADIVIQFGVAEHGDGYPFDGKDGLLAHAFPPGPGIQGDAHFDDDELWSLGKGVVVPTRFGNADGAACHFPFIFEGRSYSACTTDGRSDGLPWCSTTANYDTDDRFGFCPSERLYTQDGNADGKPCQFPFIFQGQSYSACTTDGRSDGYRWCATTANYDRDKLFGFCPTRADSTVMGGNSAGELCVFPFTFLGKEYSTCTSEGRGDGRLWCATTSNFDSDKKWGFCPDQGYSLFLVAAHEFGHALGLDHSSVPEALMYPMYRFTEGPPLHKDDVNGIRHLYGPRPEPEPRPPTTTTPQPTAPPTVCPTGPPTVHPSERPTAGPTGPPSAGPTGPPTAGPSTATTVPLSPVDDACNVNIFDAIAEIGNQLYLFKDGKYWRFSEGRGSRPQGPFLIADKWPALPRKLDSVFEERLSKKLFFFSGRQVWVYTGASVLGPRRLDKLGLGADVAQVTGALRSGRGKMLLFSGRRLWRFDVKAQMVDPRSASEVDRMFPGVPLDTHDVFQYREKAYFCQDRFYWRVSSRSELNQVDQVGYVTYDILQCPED

As for `COc1ccc2cc([C@H](C)C(=O)O)ccc2c1` [NAPROXEN], the IC50 entry (in assay [1]; at Adenosine receptor A1; in assay [2]; in assay [3]; in assay [4]; in assay [5]) was “Not Active” throughout. The IC50 entry in assay [6] (bti-tn-5b1-4) is “Not Active”. The Ki result in assay [1], in assay [3] and in assay [5] was “Not Active” in each case.

For the molecule `CC(C)[C@H]1CC[C@H](C(=O)N[C@H](Cc2ccccc2)C(=O)O)CC1` [NATEGLINIDE], the IC50 was 1670 nM in assay [1] (read-out: IC50); “Not Active” against Adenosine receptor A1; “Not Active” in assay [2]; “Not Active” in assay [3]; “Not Active” in assay [4]; “Not Active” in assay [5]. In assay [6] (bti-tn-5b1-4), the IC50 result is “Not Active”. Moreover, the values for the Ki in assay [1] (read-out: Ki), in assay [3] and in assay [5] were 189 nM, “Not Active” and “Not Active”, respectively.

As to `CCN[C@@H]1C[C@H](N)[C@@H](O[C@H]2OC(CN)=CC[C@H]2N)[C@H](O)[C@H]1O[C@H]1OC[C@](C)(O)[C@H](NC)[C@H]1O` [NETILMICIN], the IC50 result (in assay [1]; at Adenosine receptor A1; in assay [2]; in assay [3]; in assay [4]; in assay [5]) was “Not Active” throughout. In addition, in assay [6] (bti-tn-5b1-4), the half-maximal inhibitory concentration (IC50) result is “Not Active”. Further, the Ki result in assay [1], in assay [3] and in assay [5] was “Not Active” throughout.

As for `COC(=O)C1=C(C)NC(C)=C(C(=O)OCC(C)C)C1c1ccccc1[N+](=O)[O-]` (stereo not given) [NISOLDIPINE], the IC50 result in assay [1] is “Not Active”; against Adenosine receptor A1, “Not Active”; in assay [2], “Not Active”; in assay [3] (read-out: IC50) it was 2.48 nM; in assay [4] it was “Not Active”; in assay [5], “Not Active”. In addition, the IC50 entry in assay [6] (bti-tn-5b1-4) was “Not Active”. For the same molecule, the values for the Ki result in assay [1], in assay [3] (read-out: Ki) and in assay [5] were “Not Active”, 2.21 nM and “Not Active”, respectively.

Consider `CCOC(=O)C1=C(C)NC(C)=C(C(=O)OC)C1c1cccc([N+](=O)[O-])c1` (stereo not given) [NITRENDIPINE], for which the IC50 entry was “Not Active” in assay [1]; “Not Active” on Adenosine receptor A1; “Not Active” in assay [2]; 1.56 nM in assay [3] (read-out: IC50); “Not Active” in assay [4]; “Not Active” in assay [5]. Moreover, in assay [6] (bti-tn-5b1-4), the IC50 entry is on record as “Not Active”. Besides, the Ki result in assay [1] is “Not Active”; in assay [3] (read-out: Ki), 1.39 nM; in assay [5] it was “Not Active”.

On to `C#C[C@]1(OC(C)=O)CC[C@H]2[C@@H]3CCC4=CC(=O)CC[C@@H]4[C@H]3CC[C@@]21C` [NORETHINDRONE ACETATE], for which the IC50 entry (in assay [1]; against Adenosine receptor A1; in assay [2]; in assay [3]; in assay [4]; in assay [5]) was “Not Active” in each case. The IC50 entry in assay [6] (bti-tn-5b1-4) is reported as “Not Active”. Besides, the Ki entry in assay [1], in assay [3] and in assay [5] was “Not Active” each time.

For `COc1ccc2[nH]c([S+]([O-])Cc3ncc(C)c(OC)c3C)nc2c1` (stereo not given) [OMEPRAZOLE], the IC50 result (in assay [1]; at Adenosine receptor A1; in assay [2]; in assay [3]; in assay [4]; in assay [5]) was “Not Active” in each case. Besides, the IC50 entry in assay [6] (bti-tn-5b1-4) was “Not Active”. Further, the Ki entry in assay [1], in assay [3] and in assay [5] was “Not Active” throughout.

Turning to `Cc1nccn1CC1CCc2c(c3ccccc3n2C)C1=O` (stereo not given) [ONDANSETRON], the IC50 entry (in assay [1]; at Adenosine receptor A1; in assay [2]; in assay [3]; in assay [4]; in assay [5]) was “Not Active” throughout. Further, the IC50 result in assay [6] (bti-tn-5b1-4) is recorded as “Not Active”. For the same molecule, the Ki entry in assay [1], in assay [3] and in assay [5] was “Not Active” each time.

For the molecule `CCn1cc(C(=O)O)c(=O)c2cc(F)c(N3CCN(C)CC3)cc21` [PEFLOXACIN], the IC50 result (in assay [1]; against Adenosine receptor A1; in assay [2]; in assay [3]; in assay [4]; in assay [5]) was “Not Active” each time. Moreover, the IC50 result in assay [6] (bti-tn-5b1-4) is given as “Not Active”. The Ki entry in assay [1], in assay [3] and in assay [5] was “Not Active” throughout.

As to `CCCCOc1ccc(OCCCN2CCOCC2)cc1` [PRAMOXINE], the IC50 entry (in assay [1]; against Adenosine receptor A1; in assay [2]; in assay [3]; in assay [4]; in assay [5]) was “Not Active” each time. Besides, in assay [6] (bti-tn-5b1-4), the IC50 result is recorded as “Not Active”. Further, the Ki entry in assay [1], in assay [3] and in assay [5] was “Not Active” throughout.

As for `O=C(C1CCCCC1)N1CC(=O)N2CCc3ccccc3C2C1` (stereo not given) [PRAZIQUANTEL], the IC50 entry (in assay [1]; against Adenosine receptor A1; in assay [2]; in assay [3]; in assay [4]; in assay [5]) was “Not Active” each time. Further, the IC50 entry in assay [6] (bti-tn-5b1-4) is on record as “Not Active”. Moreover, the Ki result in assay [1], in assay [3] and in assay [5] was “Not Active” throughout.

On to `CCN(CC)CCOC(=O)c1ccc(N)cc1` [PROCAINE], for which the IC50 result (in assay [1]; against Adenosine receptor A1; in assay [2]; in assay [3]; in assay [4]; in assay [5]) was “Not Active” throughout. Also, in assay [6] (bti-tn-5b1-4), the IC50 entry is “Not Active”. Besides, the Ki result in assay [1], in assay [3] and in assay [5] was “Not Active” in each case.

For `CCCN(CCC)C(=O)C(CCC(=O)O)NC(=O)c1ccccc1` (stereo not given) [PROGLUMIDE], the IC50 result (in assay [1]; on Adenosine receptor A1; in assay [2]; in assay [3]; in assay [4]; in assay [5]) was “Not Active” each time. Moreover, the IC50 result in assay [6] (bti-tn-5b1-4) is listed as “Not Active”. Also, the Ki entry in assay [1], in assay [3] and in assay [5] was “Not Active” in each case.

For `NC(=O)c1cnccn1` [PYRAZINAMIDE], the IC50 result (in assay [1]; at Adenosine receptor A1; in assay [2]; in assay [3]; in assay [4]; in assay [5]) was “Not Active” in each case. In addition, the IC50 result in assay [6] (bti-tn-5b1-4) is “Not Active”. Moreover, the Ki result in assay [1], in assay [3] and in assay [5] was “Not Active” each time.

For the molecule `OC(CCN1CCCCC1)(c1ccccc1)C1CCCCC1` (stereo not given) [TRIHEXYPHENIDYL], the IC50 entry is “Not Active” in assay [1]; “Not Active” against Adenosine receptor A1; “Not Active” in assay [2]; 4810 nM in assay [3] (read-out: IC50); “Not Active” in assay [4]; “Not Active” in assay [5]. The IC50 result in assay [6] (bti-tn-5b1-4) is “Not Active”. In addition, the Ki result in assay [1] was “Not Active”; in assay [3] (read-out: Ki) it was 4280 nM; in assay [5] it was “Not Active”.

Take `Cc1cc2cc3c(C)cc(=O)oc3c(C)c2o1` [TRIOXSALEN]: the IC50 result (in assay [1]; on Adenosine receptor A1; in assay [2]; in assay [3]; in assay [4]; in assay [5]) was “Not Active” each time. Moreover, the IC50 in assay [6] (read-out: IC50) was determined as 831 nM. Moreover, the Ki result in assay [1], in assay [3] and in assay [5] was “Not Active” in each case.
